Data: patent US20140107109A1, “AMINO-DIHYDROTHIAZINE AND AMINO-DIOXIDO DIHYDROTHIAZINE COMPOUNDS AS BETA-SECRETASE ANTAGONISTS AND METHODS OF USE” (Amgen Inc., priority 2012, published 2014)
pIC50: −log10 of the molar value. Where two headings read alike, the source gives them in different places.

Experiments:
[1] = biological target: Beta Secretase enzyme (BACE1) (Homo sapiens, UniProt P56817); assay: In vitro enzymatic BACE FRET assay; type: biochemical; conditions: read-out: BACE1 FRET assay IC50
Method in brief: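 Readout: dequenched fluorescence (ex 488 nm/[…]) after neutralizing with Tris buffer. Reactions, begun by adding 50 nM quenched peptide substrate spanning the BACE cleavage site, were incubated one hour at pH 4.2 in 0.05 M acetate with 100 uM genapol and 10% final DMSO.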

[2] = biological target: T1, Cathepsin D (Cat D) (Homo sapiens, UniProt P07339); assay: In vitro enzymatic Cathepsin D (Cat D) FRET assay; type: biochemical; conditions: read-out: CatD IC50
T1 construct: Recombinant Cat D was expressed in CHO cells; made in house; host or cells: CHO cells
Method in brief: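 FRET read-out: a fluorophore/quencher-labelled peptide substrate is cleaved by 9 nM Cat D (recombinant, CHO-expressed) following a one-hour preincubation with inhibitor dilutions in DMSO. Tris buffer added to neutralize pH ends the reaction before fluorescence measurement.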

[3] = system: Aβ40 in conditioned medium of cells stably expressing Amyloid Precursor Protein (APP); assay: In vitro BACE cell-based assay (HEK cell assay), Aβ40 sandwich ELISA; conditions: Homo sapiens, HEK293
Method in brief: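 Aβ40 in conditioned medium was quantified by time-resolved fluorescence sandwich ELISA (pAb40 capture 3 h at 4 °C, biotin-6E10 detection 2 h at 4 °C) after 24 h compound exposure of APP-expressing cells. Doses spanned 10 points from 100 μM or 10 μM top, 0.1% DMSO; IC50 was derived from percent of control.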

T1 sequence (P07339 65-412, species assumed): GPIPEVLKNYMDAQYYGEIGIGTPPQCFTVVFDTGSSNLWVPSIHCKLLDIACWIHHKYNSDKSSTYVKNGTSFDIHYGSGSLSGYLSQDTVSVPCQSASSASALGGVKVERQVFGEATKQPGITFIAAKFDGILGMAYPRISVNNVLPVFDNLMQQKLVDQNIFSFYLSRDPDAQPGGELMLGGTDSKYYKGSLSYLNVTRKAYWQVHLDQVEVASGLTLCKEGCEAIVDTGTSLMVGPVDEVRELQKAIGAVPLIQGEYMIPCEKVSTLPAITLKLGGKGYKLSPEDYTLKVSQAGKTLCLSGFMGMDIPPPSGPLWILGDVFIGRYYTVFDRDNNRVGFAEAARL
Sequence of Beta Secretase enzyme (BACE1) (P56817 46-501): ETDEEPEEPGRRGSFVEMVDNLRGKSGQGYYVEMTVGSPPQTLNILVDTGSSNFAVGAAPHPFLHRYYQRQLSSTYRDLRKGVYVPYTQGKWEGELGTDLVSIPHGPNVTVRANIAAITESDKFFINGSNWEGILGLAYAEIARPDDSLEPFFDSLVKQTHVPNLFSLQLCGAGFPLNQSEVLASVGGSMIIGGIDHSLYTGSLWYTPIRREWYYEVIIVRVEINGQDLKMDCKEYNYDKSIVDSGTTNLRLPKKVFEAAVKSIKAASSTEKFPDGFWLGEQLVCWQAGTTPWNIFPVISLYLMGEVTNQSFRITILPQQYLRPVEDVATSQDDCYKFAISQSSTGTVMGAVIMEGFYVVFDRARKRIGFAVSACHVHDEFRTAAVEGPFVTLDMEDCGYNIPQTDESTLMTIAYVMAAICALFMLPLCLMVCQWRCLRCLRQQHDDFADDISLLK

| Structure (SMILES) | pIC50 ([1]; average IC50, enzyme assay) | pIC50 [2] | pIC50 ([3]; average IC50, cell assay) | pIC50 [1] | other results |
| --- | --- | --- | --- | --- | --- |
| CC1(C)C(N)=N[C@](C)(c2cc(Oc3ncc(C(F)(F)F)cc3Cl)ccc2F)CS1(=O)=O [Example 267, (5R)-5-(5-((3-chloro-5-(trifluoromethyl)-2-pyridinyl)oxy)-2-fluorophenyl)-2,2,5-trimethyl-5,6-dihydro-2H-1,4-thiazin-3-amine 1,1-dioxide] | 6.22 | 3.66 | 6.06 |  |  |
| CC1(C)C(N)=N[C@](C)(c2cc(Nc3csc4cc(C#N)cnc34)ccc2F)CS1(=O)=O [Example 73, (R)-3-((3-(5-Amino-3,6,6-trimethyl-1,1-dioxido-3,6-dihydro-2H-1,4-thiazin-3-yl)-4-fluorophenyl)amino)thieno[3,2-b]pyridine-6-carbonitrile] |  | 4.56 |  | 8.70 | pIC50 ([3]; Aβ40, 24 h incubation): 8.80 |
| COc1cccnc1Oc1ccc(F)c([C@]2(C)CS(=O)(=O)C(C)(C)C(N)=N2)c1 [Example 297, (5R)-5-(2-fluoro-5-((3-methoxy-2-pyridinyl)oxy)phenyl)-2,2,5-trimethyl-5,6-dihydro-2H-1,4-thiazin-3-amine 1,1-dioxide] | 6.69 | 3.01 |  |  | pIC50 ([3]; average IC50, HEK cell assay): 6.66 |
| C=C(C)c1cc(Cl)cnc1C(=O)Nc1ccc(F)c([C@]2(C)CS(=O)(=O)C(C)(C)C(N)=N2)c1 [Example 194, (R)—N-(3-(5-amino-3,6,6-trimethyl-1,1-dioxido-3,6-dihydro-2H-1,4-thiazin-3-yl)-4-fluorophenyl)-5-chloro-3-(prop-1-en-2-yl)picolinamide] | 8.29 | 3.21 |  |  | pIC50 ([3]; average IC50, HEK cell assay): 8.47 |
| COc1cnc2c(Nc3ccc(F)c([C@]4(CF)CS(=O)(=O)C5(CCC5)C(N)=N4)c3)nccc2n1 [Example 246, N-(3-((7S)-9-amino-7-(fluoromethyl)-5,5-dioxido-5-thia-8-azaspiro[3.5]non-8-en-7-yl)-4-fluorophenyl)-2-methoxypyrido[3,4-b]pyrazin-5-amine] | 8.84 | 3.09 | 7.67 |  |  |
| C[C@@]1(c2cc(Br)ccc2F)CS(=O)(=O)C2(CCOC2)C(N)=N1 (mixture of isomers) [Example 181, (8R)-10-Amino-8-(5-bromo-2-fluorophenyl)-8-methyl-2-oxa-6-thia-9-azaspiro[4.5]dec-9-ene 6,6-dioxide] |  | 4.36 |  |  | pIC50 ([1]; average IC50): 4.79; pIC50 ([3]; average IC50, HEK cells): < 4.81 |
| CCOc1cnc2c(Nc3ccc(F)c([C@]4(CF)CS(=O)(=O)C5(CCC5)C(N)=N4)c3)nccc2n1 [Example 238, N-(3-((7S)-9-amino-7-(fluoromethyl)-5,5-dioxido-5-thia-8-azaspiro[3.5]non-8-en-7-yl)-4-fluorophenyl)-2-ethoxypyrido[3,4-b]pyrazin-5-amine] | 8.40 | < 3.40 | 6.93 |  |  |
| CC1(C)C(N)=N[C@@](C)(c2cc(NC(=O)c3ccc(Cl)cn3)cc(F)c2F)CS1(=O)=O [Example 39, (S)—N-(3-(5-amino-3,6,6-trimethyl-1,1-dioxido-3,6-dihydro-2H-1,4-thiazin-3-yl)-4,5-difluorophenyl)-5-chloropicolinamide] |  | 3.65 |  | 5.93 | pIC50 ([3]; Aβ40, 24 h incubation): 5.49 |
| COc1cnc2c(Nc3ccc(F)c([C@]4(C)CS(=O)(=O)CC(N)=N4)c3)nccc2c1 [Example 56, N-(3-((3R)-5-amino-3-methyl-1,1-dioxido-3,6-dihydro-2H-1,4-thiazin-3-yl)-4-fluorophenyl)-3-methoxy-1,7-naphthyridin-8-amine] |  | 4.16 |  | 7.20 | pIC50 ([3]; Aβ40, 24 h incubation): 7.57 |
| CC1(C)C(N)=N[C@](C)(c2cc(NC(=O)c3ccc(Cl)cc3)ccc2F)CS1(=O)=O [Example 212, N-(3-((3R)-5-amino-3,6,6-trimethyl-1,1-dioxido-3,6-dihydro-2H-1,4-thiazin-3-yl)-4-fluorophenyl)-4-chlorobenzamide] | 7.99 | 3.50 | 7.63 |  |  |
| COc1cc(F)c2c(Nc3ccc(F)c([C@]4(C)CS(=O)(=O)C(C)(C)C(N)=N4)c3)ncnc2c1 [Example 53, N-(3-((3R)-5-amino-3,6,6-trimethyl-1,1-dioxido-3,6-dihydro-2H-1,4-thiazin-3-yl)-4-fluorophenyl)-5-fluoro-7-methoxy-4-quinazolinamine] |  | 3.49 |  | 6.13 | pIC50 ([3]; Aβ40, 24 h incubation): 6.40 |
| CC1(C)C(N)=N[C@](C)(c2cc(Oc3nccc(-c4ccccc4)c3C#N)ccc2F)CS1(=O)=O [Example 293, 2-(3-((3R)-5-amino-3,6,6-trimethyl-1,1-dioxido-3,6-dihydro-2H-1,4-thiazin-3-yl)-4-fluorophenoxy)-4-phenyl-3-pyridinecarbonitrile] | 6.08 | 4.29 |  |  | pIC50 ([3]; average IC50, HEK cell assay): 6.17 |
| COc1cnc(C(=O)Nc2ccc(F)c([C@]3(C)CS(=O)(=O)C(C)(C)C(N)=N3)n2)cn1 [Example 40, (R)—N-(6-(5-amino-3,6,6-trimethyl-1,1-dioxido-3,6-dihydro-2H-1,4-thiazin-3-yl)-5-fluoropyridin-2-yl)-5-methoxypyrazine-2-carboxamide] |  | < 3.40 |  | 5.09 | pIC50 ([3]; Aβ40, 24 h incubation): 5.16 |
| C[C@]1(F)C(N)=N[C@](C)(c2cc(Nc3nccc4cc(Cl)cnc34)ccc2F)CS1(=O)=O [Example 174, (3R,6R)-5-Amino-3-(5-((3-chloro-1,7-naphthyridin-8-yl)amino)-2-fluorophenyl)-6-fluoro-3,6-dimethyl-3,6-dihydro-2H-1,4-thiazine 1,1-dioxide] | 9.48 | 4.00 | 6.92 |  |  |
| C#Cc1cnc(Nc2ccc(F)c([C@]3(C)CS(=O)(=O)C(C)(C)C(N)=N3)c2)c2ncc(Cl)cc12 [Example 190, (R)-5-amino-3-(5-((3-chloro-5-ethynyl-1,7-naphthyridin-8-yl)amino)-2-fluorophenyl)-3,6,6-trimethyl-3,6-dihydro-2H-1,4-thiazine 1,1-dioxide] | 8.89 | 4.19 | 7.35 |  |  |

More lines, main results first:

| pIC50 ([1]; average IC50, enzyme assay) | pIC50 [2] | pIC50 ([3]; average IC50, cell assay) | pIC50 [1] | Structure (SMILES) | other results |
| --- | --- | --- | --- | --- | --- |
| 8.82 | 3.72 |  |  | CC1(C)C(N)=N[C@](C)(c2cc(NC(=O)c3cnc(OCC(F)(F)F)cn3)ccc2F)C(F)S1(=O)=O (stereo partly drawn) [Example 333, N-(3-((3R)-5-amino-2-fluoro-3,6,6-trimethyl-1,1-dioxido-3,6-dihydro-2H-1,4-thiazin-3-yl)-4-fluorophenyl)-5-(2,2,2-trifluoroethoxy)-2-pyrazinecarboxamide] | pIC50 ([3]; average IC50, HEK cell assay): 7.80 |
| 8.61 | 3.51 | 6.73 |  | CC1(C)C(N)=N[C@](CF)(c2cc(Nc3ncc(F)c4cc(OCC(F)(F)F)cnc34)ccc2F)CS1(=O)=O [Example 432, N-(3-((3S)-5-amino-3-(fluoromethyl)-6,6-dimethyl-1,1-dioxido-3,6-dihydro-2H-1,4-thiazin-3-yl)-4-fluorophenyl)-5-fluoro-3-(2,2,2-trifluoroethoxy)-1,7-naphthyridin-8-amine] |  |
|  | 3.11 |  | 9.00 | CC1(C)C(N)=N[C@](CF)(c2cc(NC(=O)c3ncc(C(F)(F)F)cc3Cl)ccc2F)CS1(=O)=O [Example 379, N-(3-((3S)-5-amino-3-(fluoromethyl)-6,6-dimethyl-1,1-dioxido-3,6-dihydro-2H-1,4-thiazin-3-yl)-4-fluorophenyl)-3-chloro-5-(trifluoromethyl)-2-pyridinecarboxamide] | pIC50 [3]: 7.94 |
| 8.35 | 3.20 | 7.59 |  | CC1(C)C(N)=N[C@](C)(c2cc(Nc3nccc4cc(OCC(F)(F)F)cnc34)ccc2F)CS1(=O)=O [Example 419, N-(3-((3R)-5-amino-3,6,6-trimethyl-1,1-dioxido-3,6-dihydro-2H-1,4-thiazin-3-yl)-4-fluorophenyl)-3-(2,2,2-trifluoroethoxy)-1,7-naphthyridin-8-amine] |  |
|  | 3.81 |  | 8.85 | Cc1cc(OC(F)F)cnc1C(=O)Nc1cnc(F)c([C@]2(C)CS(=O)(=O)C(C)(C)C(N)=N2)c1 [Example 400, N-(5-((3R)-5-amino-3,6,6-trimethyl-1,1-dioxido-3,6-dihydro-2H-1,4-thiazin-3-yl)-6-fluoro-3-pyridinyl)-5-(difluoromethoxy)-3-methyl-2-pyridinecarboxamide] | pIC50 [3]: 8.05 |
| 8.55 | 3.64 |  |  | COc1cnc(C(=O)Nc2ccc(F)c([C@]3(C)CS(=O)(=O)C(C)(C)C(N)=N3)c2)c(C)c1 [Example 357, N-(3-((3R)-5-amino-3,6,6-trimethyl-1,1-dioxido-3,6-dihydro-2H-1,4-thiazin-3-yl)-4-fluorophenyl)-5-methoxy-3-methyl-2-pyridinecarboxamide] | pIC50 ([3]; average IC50, HEK cell assay): 8.60 |
|  | 3.66 |  | 8.58 | CC1(C)C(N)=N[C@](CF)(c2cc(NC(=O)c3ccc(C(F)(F)F)cn3)ccc2F)CS1(=O)=O [Example 383, N-(3-((3S)-5-amino-3-(fluoromethyl)-6,6-dimethyl-1,1-dioxido-3,6-dihydro-2H-1,4-thiazin-3-yl)-4-fluorophenyl)-5-(trifluoromethyl)-2-pyridinecarboxamide] | pIC50 [3]: 7.70 |
